Patent US20140057887A1, “NOVEL PLATINUM-CARBENE COMPLEXES AND USE THEREOF AS MEDICAMENTS” (priority 2010, published 2014)
Entries after “also recorded” stand apart in the source; their conditions may differ. Like-named read-outs stand apart in the source and are kept apart here.

Experiments:
[1] = test system: SK-OV3; experiment: Percentage of cellular inhibition at 10 μM, SK-OV3; type: cell-based; conditions: for Inhibition (in %) {SK-OV3}: final concentration 10 μM, ovarian adenocarcinoma
Protocol: (§1) (5% CO2). […] All the treatments are carried out in triplicate.
(§2) SK-OV-3 and OVCAR8: ovarian adenocarcinomas

[2] = test system: HCT116; experiment: Percentage of cellular inhibition at 10 μM, HCT116; type: cell-based, human; conditions: final concentration 10 μM; colon carcinoma
Protocol: as §1

[3] = test system: SK-OV3; experiment: Cytotoxicity in vitro, IC50 on SK-OV3; type: cell-based; conditions: ovarian adenocarcinoma
Protocol: as §1, §2
(§3) The cytotoxicity of a compound against a cancer cell line is evaluated.

[4] = test system: Vero; experiment: Percentage of cellular inhibition at 10 μM, Vero; type: cell-based, monkey; conditions: for Inhibition (in %) {Vero}: final concentration 10 μM, monkey kidney epithelial cells (non-cancerous); for cytotoxicity on non-cancerous cells Vero (in words): 10 μM
Protocol: as §1
Vero: monkey kidney epithelial cells

[5] = test system: MCF7; experiment: Percentage of cellular inhibition at 10 μM, MCF7; type: cell-based; conditions: final concentration 10 μM; breast carcinoma
Protocol: as §1

[6] = test system: OVCAR8; experiment: Percentage of cellular inhibition at 10 μM, OVCAR8; type: cell-based; conditions: for Inhibition (in %) {OVCAR8}: final concentration 10 μM, ovarian adenocarcinoma
Protocol: as §1, §2

[7] = test system: EPC; experiment: Percentage of cellular inhibition at 10 μM, EPC; conditions: for Inhibition (in %) {EPC}: final concentration 10 μM, endothelial progenitor cells
Protocol: as §1
(§4) The endothelial progenitor cells (EPC) play an important role in angiogenesis and vasculogenesis; these last-mentioned contribute to tumour growth, are mobilized by cytokines secreted at cancer sites and contribute to postnatal vasculogenesis and to pathological neovascularization.
(§5) EPC: endothelial progenitor cells

[8] = test system: HL60; experiment: Percentage of cellular inhibition at 10 μM, HL60; type: cell-based; conditions: final concentration 10 μM; leukaemia
Protocol: as §1

[9] = test system: PC3; experiment: Percentage of cellular inhibition at 10 μM, PC3; type: cell-based; conditions: final concentration 10 μM; prostatic adenocarcinoma
Protocol: as §1
(§6) PC3: prostatic adenocarcinoma

[10] = test system: Hela; experiment: MTS cytotoxicity assay, IC50 on Hela cell line; conditions: for IC50: read-out: IC50 {Hela} (in μM), MTS assay, 48 h incubation
Protocol: (§7) MTS [3-(4,5-dimethylthiazol-2-yl)-5-(3-carboxymethoxyphenyl)-2-(4-sulphophenyl)-2H-tetrazolium] is reduced to formazan (coloured compound, the optical density of which is measured at 492 nm) by the mitochondrial dehydrogenases. Only the live cells will reduce MTS to formazan, which will be released in the medium. The optical density measured at 492 nm is directly proportional to the number of live cells.
(§8) MTS [3-(4,5-dimethylthiazol-2-yl)-5-(3-carboxymethoxyphenyl)-2-(4-sulphophenyl)-2H-tetrazolium], soluble in the culture medium, can be reduced to formazan (coloured product) by the mitochondrial dehydrogenases of the live cells. The measured optical density (492 nm) is therefore directly proportional to the quantity of live cells. The cells are deposited in a 96-well plate at 1.10^4 cells per well in 100 μL of RPMI 5% FCS. The cells are then treated with the various molecules at the desired concentrations and then incubated for 48 h at 37° C. (5% CO2). After treatment, 20 μL of MTS is added to each well. After incubation for two hours at 37° C. the optical density is measured at an absorbance of 492 nm using the plate reader Wallac Victor 2 Multi-label Counter (Technical University of Denmark, Kongens Lyngby, Denmark). All the treatments are carried out in triplicate. The blank, determined by incubating RPMI with MTS, is deducted from the values of the wells containing cells. The percentage of live cells is calculated from the following formula: (OD experiment*100)/OD control.
(§9) The cytotoxicity of the compounds according to the invention is measured in vitro on the Hela and U87 cell lines.
(§10) The cytotoxicity of a compound with respect to a cancer cell line is evaluated from the value of the inhibitory concentration IC50 of said compound with respect to said cell line.
(§11) The MTS assay gives an optical density signal that is proportional to the quantity of live cells (in a linear range). These values, as well as the untreated controls, are used for calculating the percentage of live cells at each concentration. […] The IC50 values are calculated on the basis of 4-parameter fitting using the Sigma Plot software.

[11] = test system: PC3; experiment: Cytotoxicity in vitro, IC50 on PC3; type: cell-based
Protocol: as §1, §6, §3

[12] = test system: U87; experiment: MTS cytotoxicity assay, IC50 on U87 cell line; conditions: for IC50: read-out: IC50 {U87} (in μM), MTS assay, 48 h incubation
Protocol: as §7, §8, §9
U87: stage IV glioblastoma, expresses αVβ5 and can be used as a xenograft
as §10, §11

[13] = test system: OVCAR8; experiment: Cytotoxicity in vitro, IC50 on OVCAR8; type: cell-based; conditions: ovarian adenocarcinoma
Protocol: as §1, §2, §3

[14] = test system: KB; experiment: Percentage of cellular inhibition at 10 μM, KB; type: cell-based; conditions: final concentration 10 μM; buccal carcinoma
Protocol: as §1

[15] = test system: EPC; experiment: Cytotoxicity in vitro, IC50 on EPC (endothelial progenitor cells); type: cell-based
Protocol: as §1, §5, §4, §3

[16] = test system: HCT116; experiment: Cytotoxicity in vitro, IC50 on HCT116; type: cell-based, human
Protocol: as §1, §3

[17] = test system: MRC5; experiment: Percentage of cellular inhibition at 10 μM, MRC5; type: cell-based, human; conditions: for Inhibition (in %) {MRC5}: final concentration 10 μM, human fetal lung cells (non-cancerous)
Protocol: as §1
MRCS: human fetal lung cells

[18] = test system: MCF7; experiment: Cytotoxicity in vitro, IC50 on MCF7; type: cell-based; conditions: breast carcinoma
Protocol: as §1, §3

[19] = test system: cell lines KB, SK-OV3, OVCAR-8, HL60, MCF7, HCT116, PC3, MRCS, Vero and EPC; experiment: Cellular inhibition, overall statements on the panel of cell lines; type: cell-based; conditions: 10 μM, panel of cancer and non-cancerous cell lines
From the text: The results obtained are presented below.

[20] = Measurement of water-solubility; type: physicochemical
[21] = biological target: integrin αvβ3 (Homo sapiens, UniProt P05106+P06756); conditions: background statement; cited from earlier work
[22] = measured by first dissolving cisplatin in water

Chain of integrin αvβ3 (P06756 31-889 limits assumed): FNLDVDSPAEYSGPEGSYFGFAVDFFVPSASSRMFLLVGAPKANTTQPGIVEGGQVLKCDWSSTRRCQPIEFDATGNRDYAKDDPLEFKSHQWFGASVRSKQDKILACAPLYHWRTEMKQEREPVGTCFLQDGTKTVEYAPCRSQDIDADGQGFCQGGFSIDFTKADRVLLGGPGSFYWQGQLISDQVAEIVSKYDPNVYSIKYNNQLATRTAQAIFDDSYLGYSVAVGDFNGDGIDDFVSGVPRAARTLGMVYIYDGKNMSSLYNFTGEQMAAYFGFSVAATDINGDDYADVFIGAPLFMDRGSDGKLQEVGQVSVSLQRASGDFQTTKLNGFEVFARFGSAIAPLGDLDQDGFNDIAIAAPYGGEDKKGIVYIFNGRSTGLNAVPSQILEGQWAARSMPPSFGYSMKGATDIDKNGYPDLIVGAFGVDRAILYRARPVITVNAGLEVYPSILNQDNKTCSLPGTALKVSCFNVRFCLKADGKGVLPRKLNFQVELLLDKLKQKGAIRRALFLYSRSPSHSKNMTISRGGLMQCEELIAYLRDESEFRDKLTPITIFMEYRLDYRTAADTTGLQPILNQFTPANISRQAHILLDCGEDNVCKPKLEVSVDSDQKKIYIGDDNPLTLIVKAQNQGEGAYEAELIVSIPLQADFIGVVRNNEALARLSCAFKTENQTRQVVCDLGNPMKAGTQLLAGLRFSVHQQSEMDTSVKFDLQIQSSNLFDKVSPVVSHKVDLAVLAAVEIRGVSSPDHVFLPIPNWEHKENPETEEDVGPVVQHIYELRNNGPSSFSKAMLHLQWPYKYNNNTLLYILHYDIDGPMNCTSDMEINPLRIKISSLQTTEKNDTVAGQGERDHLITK
Chain of integrin αvβ3 (P06756 891-1048 partner limits assumed): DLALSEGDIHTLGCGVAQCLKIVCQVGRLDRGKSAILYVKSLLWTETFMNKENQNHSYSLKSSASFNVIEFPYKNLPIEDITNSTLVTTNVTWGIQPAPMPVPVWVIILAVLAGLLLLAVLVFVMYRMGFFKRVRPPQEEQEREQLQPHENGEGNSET
Chain of integrin αvβ3 (P05106 27-788): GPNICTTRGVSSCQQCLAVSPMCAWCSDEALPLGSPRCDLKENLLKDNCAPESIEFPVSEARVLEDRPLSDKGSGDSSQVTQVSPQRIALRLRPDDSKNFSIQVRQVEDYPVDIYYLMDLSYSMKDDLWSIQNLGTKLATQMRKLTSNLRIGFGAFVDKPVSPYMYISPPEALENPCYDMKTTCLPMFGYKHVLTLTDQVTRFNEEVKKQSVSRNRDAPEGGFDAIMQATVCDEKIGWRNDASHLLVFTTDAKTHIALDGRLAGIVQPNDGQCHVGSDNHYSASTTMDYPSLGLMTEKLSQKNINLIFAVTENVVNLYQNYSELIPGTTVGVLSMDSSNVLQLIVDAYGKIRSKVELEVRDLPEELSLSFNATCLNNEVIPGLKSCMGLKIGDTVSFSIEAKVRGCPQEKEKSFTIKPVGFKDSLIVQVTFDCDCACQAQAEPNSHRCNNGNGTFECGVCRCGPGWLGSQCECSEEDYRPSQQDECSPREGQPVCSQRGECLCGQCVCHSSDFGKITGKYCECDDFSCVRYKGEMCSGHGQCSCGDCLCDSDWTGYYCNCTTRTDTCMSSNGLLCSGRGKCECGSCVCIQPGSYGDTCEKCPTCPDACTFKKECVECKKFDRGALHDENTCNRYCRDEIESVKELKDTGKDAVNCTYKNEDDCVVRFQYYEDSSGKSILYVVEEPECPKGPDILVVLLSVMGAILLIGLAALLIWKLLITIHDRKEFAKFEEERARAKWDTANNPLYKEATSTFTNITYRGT

Row | Compound | Inhibition (in %) {SK-OV3} [1] [%] | Inhibition (in %) {HCT116} [2] [%] | IC50 [3] [µM] | Inhibition (in %) {Vero} [4] [%] | Inhibition (in %) {MCF7} [5] [%] | Inhibition (in %) {OVCAR8} [6] [%] | Inhibition (in %) {EPC} [7] [%] | Inhibition (in %) {HL60} [8] [%] | Inhibition (in %) {PC3} [9] [%] | Inhibition (in %) {KB} [14] [%] | IC50 [15] [µM] | Inhibition (in %) {MRC5} [17] [%] | IC50 [18] [µM] | anti-angiogenic activity by inhibition of growth of EPC cells (in words) ([7]; 10 μM) | inhibition of cell growth, overall statement on the cell panel (in words) [19] | IC50 ([11]; prostatic adenocarcinoma) [µM] | other results
1 | N.N.[Cl][Pt][Cl] [Cisplatin, cisplatin, reference compound] | 4.4 | 2.7 | > 10 | −4.0 | −4.1 | −1.8 | −1.2 | −10.6 | −6.2 | 3.6 | > 10 | −20.4 | > 10 |  |  |  | IC50 [10]: 26.2 µM; IC50 [11, 22]: 5.1 µM; IC50 [12]: 8 µM; IC50 [13]: > 10 µM; IC50 [16, 22]: 5.5 µM
2 | COCCOCCOCCOCCn1ccn(C)[c]1=[Pt]([I])[I].NC1CCCCC1 [Example 13, trans-diiodo(N-cyclohexylamine)[1-methyl-3-(2,5,8,11-tetraoxatridecan-13-yl)-imidazol-2-ylidene]platinum(II)] | 90.9 | 94.0 |  |  | 94.2 | 92.4 | 96.1 | 87.3 | 83.8 | 100.4 |  |  |  | anti-angiogenic activity | improves the activity of inhibition of cell growth |  | 
3 | COCCOCCOCCOCCn1ccn(CCOCCOCCOCCOC)[c]1=[Pt]([I])[I].NC1CCCCC1 [Example 14, trans-diiodo(N-cyclohexylamine)[1,3-di(2,5,8,11-tetraoxatridecan-13-yl)-imidazol-2-ylidene]platinum(II)] | 62.8 | 31.9 | 6.2 | 17.0 | 18.6 | 78.4 | 27.2 | 31.2 | 5.7 | 26.6 |  | 24.5 |  |  | selective inhibitor of the growth of cancer cells |  | selectivity of inhibition of cell growth, SKOV-3 (in words) ([1]; 10 μM): selective with respect to the ovarian cancer cells SKOV-3 and OVCAR8; cytotoxicity on non-cancerous cells Vero (in words) [4]: low cytotoxicity; selectivity of inhibition of cell growth, OVCAR8 (in words) ([6]; 10 μM): selective with respect to the ovarian cancer cells SKOV-3 and OVCAR8; cytotoxicity on non-cancerous cells EPC (in words) ([7]; 10 μM): low cytotoxicity; IC50 [13]: 3.9 µM; cytotoxicity on non-cancerous cells MRCS (in words) ([17]; 10 μM): low cytotoxicity
4 | Cn1ccn(CCC[Si](C)(C)C)[c]1=[Pt]([I])[I].c1ccncc1 [Example 28, trans-diiodo(N-pyridine)[1-methyl-3-(3-(trimethylsilyl)propyl)-imidazol-2-ylidene]platinum(II)] | 100.4 | 99.4 | 0.2 |  | 99.2 | 98.0 | 100.3 | 99.6 | 91.5 | 99.8 | 0.6 |  | 0.2 | anti-angiogenic activity |  | 0.5 | 
5 | CN1C=CN(Cc2ccccc2)[CH]1[Pt]([I])([I])[NH]CCN (stereo not drawn) [Example 33, trans-diiodo(N-ethylenediamine)[1-methyl-3-benzyl-imidazol-2-ylidene]platinum(II)] |  |  |  |  |  |  |  |  |  |  |  |  |  |  |  |  | solubility ([20]; water, thermodynamic from solid, ambient temperature and pressure): 3300 µg/mL
6 | CNC(=O)NCC(Cc1ccccc1)NC(=O)NCC(Cc1ccccc1)NC(=O)NCC(Cc1ccccc1)NC(=O)NCC(N)Cc1ccccc1.Cn1ccn(Cc2ccccc2)[c]1=[Pt]([I])[I] [Example 39, trans-diiodo(N-[1-((2R,7R,12R,17R)-17-amino-2,7,12-tribenzyl-4,9,14-trioxo-18-phenyl-3,5,8,10,13,15-hexaazaoctadecyl)-3-methylurea])[1-methyl-3-benzyl-imidazol-2-ylidene]platinum(II)] | 95.2 | 96.1 | 0.6 |  | 95.9 | 92.1 | 99.3 | 91.0 | 90.9 | 101.2 | 1.9 |  | 0.6 | anti-angiogenic activity |  | 1.4 | IC50 ([16]; colon carcinoma): 0.4 µM
7 | cyclo(RGDfK) [cyclo(RGDfK) peptide] |  |  |  |  |  |  |  |  |  |  |  |  |  |  |  |  | affinity for integrin αvβ3 (in words) [21]: high affinity
8 | trans-diiodo(N-[(methoxy)polyethylene glycol amine])[1-methyl-3-benzyl-imidazol-2-ylidene]platinum(II) [Example 22] | 90.3 | 94.3 |  |  | 91.7 | 90.0 | 93.7 | 87.4 | 78.5 | 77.8 |  |  |  | anti-angiogenic activity |  |  | Water-solubility ([20]; ambient temperature and pressure): 11.1 g/L
9 | trans-diiodo(N-poly(ethylenamine))[1-methyl-3-benzyl-imidazol-2-ylidene]platinum(II) [Example 34] | 99.1 | 90.1 | 1.2 | 19.5 | 98.2 | 79.1 | 95.8 | 97.0 | 64.2 | 64.0 |  | 26.4 | 1.7 | anti-angiogenic activity | inhibitor of the growth of cancer cells and an anti-angiogenic agent; also recorded: cytotoxic activity on all of the cancer cells tested | 2.8 | Water-solubility [20]: 6.7 g/L; cytotoxicity on non-cancerous cells Vero (in words) [4]: low cytotoxicity; cytotoxic activity compared with cisplatin, HeLa cell line (in words) ([10]; comparison with cisplatin): almost identical to that of cisplatin; IC50 [10]: 28.4 µM; cytotoxic activity compared with cisplatin, U87 cell line (in words) ([12]; comparison with cisplatin): almost identical to that of cisplatin; IC50 [12]: 8.3 µM; IC50 ([16]; colon carcinoma): 1 µM
